Experiments:
[1] = system: HT29 cells; assay: Proliferation assay for HT29 colorectal cancer cells (CellTiter-Glo cell viability); type: cell-based; settings: Homo sapiens, HT-29; HT29 colorectal cancer cell line, 72 hours, ATP detection
Method: HT-29 which is a commercially available colorectal cancer cell line was treated with trypsin-EDTA, incubated, and seeded in a 96 well plate. […] The treated cells were incubated for further 72 hours and cell viability was measured by an ATP detection method (CellTiter-Glo LuminescentCell Viability Assay, Promega).
In order to confirm the anticancer effect of the compounds according to the present invention, a proliferation assay for HT29 cells which are a colorectal cancer cell line was performed by the above method, and IC50 values as a result are listed in the following Table 4: […]

[2] = system: YAP-TEAD; assay: Luciferase assay of YAP-TEAD binding inhibition (TEAD luciferase reporter 8XGTIIC in HEK293T cells); type: cell-based; settings: 10 μM, 24 hours, luciferase normalized with β-galactosidase
Method: A Luciferase assay which allows an inhibition degree of YAP-TEAD, previously reported in Cancers 2018, 10(5), 140, was used to measure an in vitro binding inhibition rate of YAP-TEAD.
HEK293T cells were purchased from American Type Culture Collection and incubated in DMEM media containing 10% FBS, L-glutamine, and penicillin/streptomycin. The HEK293T cells were seeded in a 24 well plate at a density of 1×10^5, and coated with polyethyleneamine (10 μg/mL). These cells were transfected with 8XGTIIC-luciferase (Addgene reference 34615) which is TEAD luciferase reporter plasmid and control β-galactosidase plasmid CMV-β-Gal using a lipofectamine 2000 reagent (Life Technologies, Inc.) according to the manufacturer's manual. Thereafter, the compound of the present invention was treated at a concentration of 10 μM for 24 hours, the cells were lysed using a Reporter lysis buffer (Promega, France), luciferase activity was read with a Mithras LB940 plate reader, and then normalization was performed with β-galactosidase.

Structure (SMILES) | IC50 [1] | Inhibition(%) [2]
CS(=O)(=O)N1CCCCC1C(=O)Nc1ccc2c3c(cccc13)C(=O)N2Cc1ccccc1 (stereo not drawn) [Compound 9] | 25.3 µM | 
COCCN1C(=O)c2cccc3c(NC(=O)C4CCCCN4S(=O)(=O)c4cccs4)ccc1c23 (stereo not drawn) [Compound 12] | 30.7 µM | 
O=C(Nc1ccc2c3c(cccc13)C(=O)N2Cc1ccncc1)C1CCCCN1S(=O)(=O)c1cccs1 (stereo not drawn) [Compound 18] | 26.4 µM | 
N#CCCCN1C(=O)c2cccc3c(NC(=O)C4CCCCN4S(=O)(=O)c4cccs4)ccc1c23 (stereo not drawn) [Compound 20] | 32.3 µM | 65%
N#CCCN1C(=O)c2cccc3c(NC(=O)C4CCCCN4S(=O)(=O)c4cccs4)ccc1c23 (stereo not drawn) [Compound 21] | 34.2 µM | 59%
COCCCN1C(=O)c2cccc3c(NC(=O)C4CCCCN4S(=O)(=O)c4ccc(Cl)s4)ccc1c23 (stereo not drawn) [Compound 30] | 22 µM | 56%
COCCCN1C(=O)c2cccc3c(NC(=O)C4CCCCN4S(=O)(=O)c4ccc5c(c4)CCO5)ccc1c23 (stereo not drawn) [Compound 39] | 20.3 µM | 66%
COCCCN1C(=O)c2cccc3c(NC(=O)C4CCCCN4S(=O)(=O)c4ccc(OC)c(OC)c4)ccc1c23 (stereo not drawn) [Compound 42] | 44.5 µM | 68%
COCCCN1C(=O)c2cccc3c(NC(=O)C4CCCCN4S(=O)(=O)c4sc(NC(C)=O)nc4C)ccc1c23 (stereo not drawn) [Compound 43] | 35 µM | 50%
O=C(Nc1ccc2c3c(cccc13)C(=O)N2CCCO)C1CCCCN1S(=O)(=O)c1cccs1 (stereo not drawn) [Compound 45] | 40.4 µM | 
COCCCN1C(=O)c2cccc3c(NC(=O)C4CCCN(S(=O)(=O)c5sc(NC(C)=O)nc5C)C4)ccc1c23 (stereo not drawn) [Compound 47] | 29.2 µM | 
COCCCN1C(=O)c2cccc3c(NC(=O)C4CCCN(S(=O)(=O)c5scnc5C)C4)ccc1c23 (stereo not drawn) [Compound 64] | 24.7 µM | 76%
COCCCN1C(=O)c2cccc3c(NC(=O)C4CCCCN4S(=O)(=O)c4c(Cl)nc5sccn45)ccc1c23 (stereo not drawn) [Compound 78] | 30.1 µM | 53%
COCCCN1C(=O)c2cccc3c(NC(=O)C4CCCCN4S(=O)(=O)c4scnc4C)ccc1c23 (stereo not drawn) [Compound 81] | 45.4 µM | 
COCCCN1C(=O)c2cccc3c(NC(=O)C4CCCCN4S(=O)(=O)c4cccc(C(F)(F)F)n4)ccc1c23 (stereo not drawn) [Compound 82] | 30.6 µM | 
COCCCN1C(=O)c2cccc3c(NC(=O)C4CCCCN4S(=O)(=O)c4ccc5c(c4)OCCO5)ccc1c23 (stereo not drawn) [Compound 83] | 19.4 µM | 92%
COCCCN1C(=O)c2cccc3c(NC(=O)C4CCCCN4S(=O)(=O)c4ccc(N)cc4)ccc1c23 (stereo not drawn) [Compound 145] |  | 53%
COCCCN1C(=O)c2cccc3c(NC(=O)C4CCCN(S(=O)(=O)c5ccc6c(c5)OC(F)(F)O6)C4)ccc1c23 (stereo not drawn) [Compound 149] |  | 59%
COCCCN1C(=O)c2cccc3c(NC(=O)C4CCCN(S(=O)(=O)c5ccc(-c6ccccc6)cc5)C4)ccc1c23 (stereo not drawn) [Compound 151] |  | 57%
COCCCN1C(=O)c2cccc3c(NC(=O)C4CCCCN4S(=O)(=O)c4ccc(-c5ccccc5)cc4)ccc1c23 (stereo not drawn) [Compound 152] |  | 77%
COCCCN1C(=O)c2cccc3c(NC(=O)C4CCCCN4S(=O)(=O)c4ccc(NC(C)=O)cc4)ccc1c23 (stereo not drawn) [Compound 153] |  | 55%
O=C(Nc1ccc2c3c(cccc13)C(=O)N2CCS(=O)(=O)c1ccccc1)C1CCCN(S(=O)(=O)c2ccc3c(c2)CCO3)C1 (stereo not drawn) [Compound 155] |  | 66%
O=C(Nc1ccc2c3c(cccc13)C(=O)N2CCS(=O)(=O)c1ccccc1)C1CCCCN1S(=O)(=O)c1ccc2c(c1)CCO2 (stereo not drawn) [Compound 156] |  | 64%
COCCCN1C(=O)c2cccc3c(NC(=O)C4CCCN(S(=O)(=O)c5ccc(-c6ccccc6)s5)C4)ccc1c23 (stereo not drawn) [Compound 158] |  | 61%
COCCCN1C(=O)c2cccc3c(NC(=O)C4CCCCN4S(=O)(=O)c4ccc(-c5ccccc5)s4)ccc1c23 (stereo not drawn) [Compound 159] |  | 84%
COCCCN1C(=O)c2cccc3c(NC(=O)C4CCCCN4S(=O)(=O)c4ccco4)ccc1c23 (stereo not drawn) [Compound 160] |  | 53%
COCCCN1C(=O)c2cccc3c(NC(=O)C4CCCN(S(=O)(=O)c5ccc(F)cc5)C4)ccc1c23 (stereo not drawn) [Compound 161] |  | 88%
COCCCN1C(=O)c2cccc3c(NC(=O)C4CCCCN4S(=O)(=O)c4cccc(F)c4)ccc1c23 (stereo not drawn) [Compound 162] |  | 74%

Further lines, with some results ahead:

IC50 [1] | Structure (SMILES) | Inhibition(%) [2]
7.1 µM | Cc1ccc(S(=O)(=O)N2CCCCC2C(=O)Nc2ccc3c4c(cccc24)C(=O)N3Cc2ccccc2)cc1 (stereo not drawn) [Compound 5] | 
7.29 µM | O=C(Nc1ccc2c3c(cccc13)C(=O)N2Cc1ccccc1)C1CCCCN1S(=O)(=O)c1ccc([N+](=O)[O-])cc1 (stereo not drawn) [Compound 6] | 
2.99 µM | COc1ccc(CCN2C(=O)c3cccc4c(NC(=O)C5CCCCN5S(=O)(=O)c5cccs5)ccc2c34)cc1 (stereo not drawn) [Compound 15] | 81%
4.24 µM | O=C(Nc1ccc2c3c(cccc13)C(=O)N2CCc1ccc([N+](=O)[O-])cc1)C1CCCCN1S(=O)(=O)c1cccs1 (stereo not drawn) [Compound 16] | 77%
12.2 µM | COCCCN1C(=O)c2cccc3c(NC(=O)C4CCCN(S(=O)(=O)c5ccc(Cl)s5)C4)ccc1c23 (stereo not drawn) [Compound 29] | 87%
13.3 µM | COCCCN1C(=O)c2cccc3c(NC(=O)C4CCCN(S(=O)(=O)c5ccc6c(c5)CCO6)C4)ccc1c23 (stereo not drawn) [Compound 34] | 87%
2.2 µM | COCCCN1C(=O)c2cccc3c(NC(=O)C4CCCCN4S(=O)(=O)c4cc([N+](=O)[O-])c(Cl)s4)ccc1c23 (stereo not drawn) [Compound 38] | 
9.8 µM | COCCCN1C(=O)c2cccc3c(NC(=O)C4CCCN(S(=O)(=O)c5ccc6c(c5)OCO6)C4)ccc1c23 (stereo not drawn) [Compound 56] | 63%
10.2 µM | COC(C)(C)CCN1C(=O)c2cccc3c(NC(=O)C4CCCCN4S(=O)(=O)c4cccs4)ccc1c23 (stereo not drawn) [Compound 58] | 65%
7.6 µM | COCCCN1C(=O)c2cccc3c(NC(=O)C4CCCN(S(=O)(=O)c5ccc(Br)s5)C4)ccc1c23 (stereo not drawn) [Compound 59] | 87%
12.5 µM | COCCCN1C(=O)c2cccc3c(NC(=O)C4CCCCN4S(=O)(=O)c4ccc(Br)s4)ccc1c23 (stereo not drawn) [Compound 60] | 67%
5.6 µM | COCCCN1C(=O)c2cccc3c(NC(=O)C4CCCN(S(=O)(=O)c5cc(Br)c(Br)s5)C4)ccc1c23 (stereo not drawn) [Compound 61] | 
17.5 µM | COCCCN1C(=O)c2cccc3c(NC(=O)C4CCCN(S(=O)(=O)c5cc6c(s5)CCCC6)C4)ccc1c23 (stereo not drawn) [Compound 65] | 
8.7 µM | COCCCN1C(=O)c2cccc3c(NC(=O)C4CCCCN4S(=O)(=O)c4c(Cl)sc(Cl)c4Br)ccc1c23 (stereo not drawn) [Compound 66] | 59%
10.9 µM | COCCCN1C(=O)c2cccc3c(NC(=O)C4CCCN(S(=O)(=O)c5c(Cl)nc6sccn56)C4)ccc1c23 (stereo not drawn) [Compound 68] | 81%
16.8 µM | COCCCN1C(=O)c2cccc3c(NC(=O)C4CCCN(S(=O)(=O)c5cccc6nsnc56)C4)ccc1c23 (stereo not drawn) [Compound 69] | 94%
16.8 µM | COCCCN1C(=O)c2cccc3c(NC(=O)C4CCCN(S(=O)(=O)c5cccc6cccnc56)C4)ccc1c23 (stereo not drawn) [Compound 75] | 93%
14 µM | COCCCN1C(=O)c2cccc3c(NC(=O)C4CCCCN4S(=O)(=O)c4cccc5nsnc45)ccc1c23 (stereo not drawn) [Compound 79] | 71%
5.6 µM | COCCCN1C(=O)c2cccc3c(NC(=O)C4CCCCN4S(=O)(=O)c4cc(Br)c(Br)s4)ccc1c23 (stereo not drawn) [Compound 80] | 77%
8.2 µM | COCCCN1C(=O)c2cccc3c(NC(=O)C4CCCCN4S(=O)(=O)c4cc5c(s4)CCCC5)ccc1c23 (stereo not drawn) [Compound 84] | 83%
12 µM | CN(CCCN1C(=O)c2cccc3c(NC(=O)C4CCCCN4S(=O)(=O)c4cccs4)ccc1c23)S(C)(=O)=O (stereo not drawn) [Compound 117] | 85%
2.9 µM | COCCCN1C(=O)c2cccc3c(NC(=O)C4CCCCN4S(=O)(=O)c4ccc(-c5ccccn5)s4)ccc1c23 (stereo not drawn) [Compound 118] | 84%
6.5 µM | COCCCN1C(=O)c2cccc3c(NC(=O)C4CCCN(S(=O)(=O)c5ccc(OCCOC)c(C)c5)C4)ccc1c23 (stereo not drawn) [Compound 122] | 68%

Reference: US20220017491A1, “COMPOUND INHIBITING YAP-TEAD BINDING, AND PHARMACEUTICAL COMPOSITION FOR PREVENTING OR TREATING CANCER, COMPRISING COMPOUND AS ACTIVE INGREDIENT” (KOREA RESEARCH INSTITUTE OF CHEMICAL TECHNOLOGY, priority 2018, published 2022)
